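These data come from cells grown in 96-well plates and exposed to compound for 48 hours at five concentrations. GI50 = concentration required for 50% inhibition of growth. TGI: concentration producing complete growth inhibition.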
How the values were obtained:
Experiment in all cases: inhibition of tumour cell growth, NCI panel, 48 h
[1] = tested on: HCT-15 colon
[2] = tested on: 786-0 renal
[3] = tested on: MALME-3M melanoma
[4] = tested on: MDA-MB-231 breast
[5] = tested on: A549 NSCLC
[6] = tested on: HT29 colon
[7] = tested on: HS 578T breast
[8] = tested on: BT-549 breast
[9] = tested on: OVCAR-5 ovarian
[10] = tested on: NCI-H460 lung
[11] = tested on: SF-295 CNS
[12] = tested on: A498 renal
[13] = tested on: SK-MEL-5 melanoma
[14] = tested on: SW-620 colon
[15] = tested on: SN12C renal
[16] = tested on: NCI-H226 lung
[17] = tested on: NCI/ADR-RES ovarian
[18] = tested on: SK-MEL-2 melanoma
[19] = tested on: COLO 205 colon
[20] = tested on: UACC-62 melanoma
[21] = tested on: ACHN renal
[22] = tested on: T-47D breast
[23] = tested on: SNB-19 CNS
[24] = tested on: EKVX NSCLC
[25] = tested on: KM12 colon
[26] = tested on: RPMI-8226 leukemia
[27] = tested on: NCI-H522 lung
[28] = tested on: HCT-116 colon
[29] = tested on: RXF 393 renal

Q: `Cc1cccc2c3c(sc12)C(c1ccc(F)cc1)C(C#N)=C(/N=C/c1ccc(Cl)cc1)O3` (stereo not drawn) was tested. Which GI50 [1] did it give?
A: 366 nM

Q: And the TGI [1]?
A: 10300 nM

Q: What about the GI50 [2] of the same compound?
A: 601 nM

Q: What about the TGI [2] of the same compound?
A: 12500 nM

Q: What about the GI50 [3] of the same compound?
A: 720 nM

Q: What about the TGI [3] of the same compound?
A: 23200 nM

Q: And the GI50 [4]?
A: 700 nM

Q: What about the TGI [4] of the same compound?
A: 14800 nM

Q: What about the GI50 [5] of the same compound?
A: 670 nM

Q: What about the TGI [5] of the same compound?
A: > 100000 nM

Q: What about the GI50 [6] of the same compound?
A: 532 nM

Q: What about the TGI [6] of the same compound?
A: 5040 nM

Q: And the GI50 [7]?
A: 426 nM

Q: What about the TGI [7] of the same compound?
A: 10300 nM

Q: What about the GI50 [8] of the same compound?
A: 907 nM

Q: And the TGI [8]?
A: 3560 nM

Q: What about the GI50 [9] of the same compound?
A: 516 nM

Q: And the TGI [9]?
A: 15400 nM

Q: What about the GI50 [10] of the same compound?
A: 348 nM

Q: What about the TGI [10] of the same compound?
A: 3560 nM

Q: And the GI50 [11]?
A: 339 nM

Q: And the TGI [11]?
A: 11600 nM

Q: And the GI50 [12]?
A: 10600 nM

Q: What about the TGI [12] of the same compound?
A: 42000 nM

Q: What about the GI50 [13] of the same compound?
A: 488 nM

Q: What about the TGI [13] of the same compound?
A: 3290 nM

Q: And the GI50 [14]?
A: 383 nM

Q: And the TGI [14]?
A: 13100 nM

Q: And the GI50 [15]?
A: 597 nM

Q: What about the TGI [15] of the same compound?
A: 12200 nM

Q: What about the GI50 [16] of the same compound?
A: 434 nM

Q: And the TGI [16]?
A: 2960 nM

Q: What about the GI50 [17] of the same compound?
A: 302 nM

Q: What about the TGI [17] of the same compound?
A: 3490 nM

Q: And the GI50 [18]?
A: 317 nM

Q: What about the TGI [18] of the same compound?
A: 17800 nM

Q: And the GI50 [19]?
A: 648 nM

Q: What about the TGI [19] of the same compound?
A: 2510 nM

Q: And the GI50 [20]?
A: 354 nM

Q: And the TGI [20]?
A: 13400 nM

Q: What about the GI50 [21] of the same compound?
A: 695 nM

Q: What about the TGI [21] of the same compound?
A: 15500 nM

Q: What about the GI50 [22] of the same compound?
A: 583 nM

Q: And the TGI [22]?
A: 53000 nM

Q: What about the GI50 [23] of the same compound?
A: 552 nM

Q: And the TGI [23]?
A: 19000 nM

Q: What about the GI50 [24] of the same compound?
A: 1720 nM

Q: What about the TGI [24] of the same compound?
A: 46100 nM

Q: And the GI50 [25]?
A: 417 nM

Q: What about the TGI [25] of the same compound?
A: 13200 nM

Q: What about the GI50 [26] of the same compound?
A: 421 nM

Q: And the TGI [26]?
A: 7690 nM

Q: What about the GI50 [27] of the same compound?
A: 91.3 nM

Q: And the TGI [27]?
A: 372 nM

Q: What about the GI50 [28] of the same compound?
A: 384 nM

Q: What about the TGI [28] of the same compound?
A: 6300 nM

Q: And the GI50 [29]?
A: 222 nM

Q: What about the TGI [29] of the same compound?
A: 664 nM
